{
  "source": "paper PMC10638401",
  "about": "“Mannich-type modifications of (−)-cannabidiol and (−)-cannabigerol leading to new, bioactive derivatives” (Scientific Reports, 2023)",
  "key": {"[1]": {"tested_on": "Enterococcus faecalis 29 212", "assay": "MIC, broth micro dilution", "settings": "Enterococcus faecalis, 29212", "quoted_text": "(§2) According to CLSI guideline the Minimal Inhibitory Concentrations (MICs) of the prepared compounds were determined with the broth micro dilution method. After an overnight growth on 5% bovine blood agar plates at 35 °C bacterial strains were suspended in physiological saline in order to reach the density of 0.5 McFarland for inoculation. Stock solutions containing different concentrations of the substances were prepared in DMSO and H2O (1:1). These were twofold serially diluted from 256 to 0.5 mg/l in Mueller–Hinton broth, and 100 ml of each dilution was inoculated with 10 ml of each bacterial suspension."}, "Bacillus subtilis": {"tested_on": "Bacillus subtilis", "assay": "MIC, broth micro dilution", "quoted_text": "as §2"}, "[2]": {"tested_on": "Staphylococcus epidermidis biofilm forming", "assay": "MIC, broth micro dilution", "settings": "Staphylococcus epidermidis"}, "SZ95 sebocytes [3]": {"tested_on": "SZ95 sebocytes", "assay": "Nile Red-assay, spontaneous sebaceous lipogenesis", "format": "cell-based, human", "settings": "48 h"}, "[4]": {"tested_on": "Enterococcus faecalis 51299 VanB", "assay": "MIC, broth micro dilution", "settings": "Enterococcus faecalis, 51299VANB", "quoted_text": "as §2"}, "[5]": {"tested_on": "MSSA (Methicillin Sensitive Staphylococcus aureus)", "assay": "MIC, broth micro dilution", "settings": "Staphylococcus aureus", "quoted_text": "as §2"}, "A2780 cells": {"tested_on": "A2780 cells", "assay": "Antiproliferative MTT assay, 72 h", "format": "cell-based, human", "in_short": "(§1)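 Cells seeded at 5000/well, grown overnight, then treated with 10 or 30 μM compound for 72 h. MTT added for 4 h, formazan dissolved in DMSO and read at 545 nm. Values are % proliferation inhibition versus untreated controls (0%), two experiments with five wells each.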"}, "MCF7 cells": {"tested_on": "MCF7 cells", "assay": "Antiproliferative MTT assay, 72 h", "format": "cell-based, human", "in_short": "as §1"}, "MDA-MB-231 cells": {"tested_on": "MDA-MB-231 cells", "assay": "Antiproliferative MTT assay, 72 h", "format": "cell-based, human", "in_short": "as §1"}, "SiHa cells": {"tested_on": "SiHa cells", "assay": "Antiproliferative MTT assay, 72 h", "format": "cell-based, human", "in_short": "as §1"}, "SZ95 sebocytes [6]": {"tested_on": "SZ95 sebocytes", "assay": "Viability MTT-assay on sebocytes, 48 h", "format": "cell-based, human", "settings": "30 μM", "experimental": "Human immortalized SZ95 sebocytes, originated from human facial sebaceous glands[50] were provided by prof. Christos C. Zouboulis, and were cultured in Sebomed® Basal Medium (Cat. No. F8205; Sigma-Aldrich) supplemented with 10% FBS (Gibco-Thermo Fisher Scientific), 1 mM CaCl2 (Cat. No. C7902; Sigma-Aldrich), 5 ng/ml human epidermal growth factor (Cat. No. E9644; Sigma-Aldrich), and MycoZap™ Plus-CL (1:500; Lonza). The medium was changed every other day, and cells were subcultured at 60–70% confluence.\nThe viability of HaCaT keratinocytes and SZ95 sebocytes was determined by MTT-assay[58] (Cat. No. M5655; Sigma-Aldrich) measuring the conversion of the tetrazolium salt to formazan by mitochondrial dehydrogenases. Cells were plated in 96-well plates (20,000 cells/well), and were treated as indicated. Cells were then incubated with 0.5 mg/ml MTT reagent for 3 h, and concentration of formazan crystals (as an indicator of number of viable cells) was determined colorimetrically at 565 nm by using FlexStation 3 multi-mode microplate reader (Molecular Devices). Results were expressed as percentage of vehicle-treated control regarded as 100%."}},
  "data": [
    {"smiles": "C=C(C)[C@@H]1CCC(C)=C[C@H]1c1c(O)cc(CCCCC)cc1O", "note": "[Compound 1, (−)-Cannabidiol]", "values": [
      {"measurement": "MIC", "setting": "[1]", "result": 2, "unit": "µg/mL"},
      {"measurement": "MIC", "setting": "Bacillus subtilis", "result": 4, "unit": "µg/mL"},
      {"measurement": "MIC", "setting": "[2]", "result": 8, "unit": "µg/mL"},
      {"measurement": "spontaneous, homeostatic sebaceous lipogenesis (lipid synthesis)", "setting": "SZ95 sebocytes [3]; 30 μM", "result": "significant decrease in the lipid synthesis"},
      {"measurement": "spontaneous, homeostatic sebaceous lipogenesis", "setting": "SZ95 sebocytes [3]; ≤ 10 μM", "result": "no effect"},
      {"measurement": "MIC", "setting": "[4]", "result": 4, "unit": "µg/mL"},
      {"measurement": "MIC", "setting": "[5]", "result": 4, "unit": "µg/mL"},
      {"measurement": "inhibition of the proliferation (in words)", "setting": "A2780 cells; A2780, 10 μM", "result": "modest"},
      {"measurement": "inhibition at 30 µM", "setting": "A2780 cells; Homo sapiens, A2780, 30 μM, read-out: inhibition of the proliferation", "result": "~90", "unit": "%"},
      {"measurement": "inhibition at 30 µM", "setting": "MCF7 cells; Homo sapiens, MCF7, 30 μM, read-out: inhibition of the proliferation", "result": "~90", "unit": "%"},
      {"measurement": "inhibition of the proliferation (in words)", "setting": "MCF7 cells; MCF7, 10 μM", "result": "modest"},
      {"measurement": "inhibition at 30 µM", "setting": "MDA-MB-231 cells; Homo sapiens, MDA-MB-231, 30 μM, read-out: inhibition of the proliferation", "result": "~90", "unit": "%"},
      {"measurement": "inhibition of the proliferation (in words)", "setting": "MDA-MB-231 cells; MDA-MB-231, 10 μM", "result": "negligible"},
      {"measurement": "inhibition of the proliferation (in words)", "setting": "SiHa cells; 10 μM", "result": "negligible"},
      {"measurement": "inhibition at 30 µM", "setting": "SiHa cells; Homo sapiens, 30 μM, read-out: inhibition of the proliferation", "result": "~90", "unit": "%"},
      {"measurement": "viability (MTT signal intensity)", "setting": "SZ95 sebocytes [6]", "result": "cytotoxic effects"}
    ]},
    {"smiles": "C=C(C)[C@@H]1CCC(C)=C[C@H]1c1c(O)cc(CCCCC)c(COCC)c1O", "note": "[Compound 9]", "values": [
      {"measurement": "MIC", "setting": "[1]", "result": 8, "unit": "µg/mL"},
      {"measurement": "MIC", "setting": "Bacillus subtilis", "result": "> 256", "unit": "µg/mL"},
      {"measurement": "MIC", "setting": "[2]", "result": "> 256", "unit": "µg/mL"},
      {"measurement": "spontaneous, homeostatic sebaceous lipogenesis", "setting": "SZ95 sebocytes [3]; applied alone", "result": "rather promote spontaneous, homeostatic sebaceous lipogenesis"},
      {"measurement": "MIC", "setting": "[4]", "result": 8, "unit": "µg/mL"},
      {"measurement": "MIC", "setting": "[5]", "result": "> 256", "unit": "µg/mL"},
      {"measurement": "antiproliferative activity (in words)", "setting": "A2780 cells; A2780, 10 and 30 μM", "result": "None of the other tested CBD analogs (9, 11, and 12) exhibited substantial antiproliferative activity"},
      {"measurement": "antiproliferative activity (in words)", "setting": "MCF7 cells; MCF7, 10 and 30 μM", "result": "None of the other tested CBD analogs (9, 11, and 12) exhibited substantial antiproliferative activity"},
      {"measurement": "antiproliferative activity (in words)", "setting": "MDA-MB-231 cells; MDA-MB-231, 10 and 30 μM", "result": "None of the other tested CBD analogs (9, 11, and 12) exhibited substantial antiproliferative activity"},
      {"measurement": "antiproliferative activity (in words)", "setting": "SiHa cells; 10 and 30 μM", "result": "None of the other tested CBD analogs (9, 11, and 12) exhibited substantial antiproliferative activity"},
      {"measurement": "viability (MTT signal intensity)", "setting": "SZ95 sebocytes [6]", "result": "no such effect on the viability"}
    ]}
  ]
}
